Test results published in patent publication US20240398812A1 (Caraway Therapeutics, Inc., priority 2021, published 2024).

Columns and labels:
TRPML3 = molecular target: T1, TRPML3 (Homo sapiens, UniProt Q8TDD5); test: Fluorescent TRPML3 assay (as for TRPML1); assay type: cell-based; conditions: Table 3, compounds 101-177
T1 construct: expressed in transfected cells
T1 sequence (Q8TDD5 1-553): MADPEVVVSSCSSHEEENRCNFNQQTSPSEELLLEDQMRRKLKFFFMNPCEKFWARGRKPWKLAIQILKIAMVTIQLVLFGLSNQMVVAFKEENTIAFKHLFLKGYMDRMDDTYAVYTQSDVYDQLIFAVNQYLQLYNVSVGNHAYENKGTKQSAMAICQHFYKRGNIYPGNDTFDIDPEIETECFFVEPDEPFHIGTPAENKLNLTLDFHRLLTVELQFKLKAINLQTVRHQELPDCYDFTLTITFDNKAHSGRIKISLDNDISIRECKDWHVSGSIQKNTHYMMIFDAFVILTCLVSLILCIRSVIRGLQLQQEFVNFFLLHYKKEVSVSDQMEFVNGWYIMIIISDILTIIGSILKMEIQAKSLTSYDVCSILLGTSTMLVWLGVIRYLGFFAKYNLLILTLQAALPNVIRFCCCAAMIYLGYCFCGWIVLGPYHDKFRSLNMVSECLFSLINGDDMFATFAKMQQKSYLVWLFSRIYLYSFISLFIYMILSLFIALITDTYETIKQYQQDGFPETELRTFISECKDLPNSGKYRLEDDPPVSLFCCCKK
Description: (§1) HEK-293 Trex cells were stably transfected with a construct consisting of the human coding sequence for TRPML1 cloned into the tet-inducible plasmid pCDNA5 T/O. Mutations were introduced into the TRPML1 sequence to facilitate expression on the cell surface (Silvia Vergarajauregui, Rosa Puertollano Traffic. 2006 March; 7 (3): 337-353). Briefly, the cells are cultured in 150 mm round tissue culture dishes containing 20 mL of media. The day before the assay the cells are rinsed with DPBS —Ca—Mg and then treated briefly with Trypsin-EDTA. The Trypsin-EDTA is diluted with growth media, and cells are counted. 38×10^6 cells are re-plated into 150 mm round tissue culture dishes in media containing 0.5 ug/mL doxycycline to induce expression of hTRPML1.
(§2) The day of the experiment cells are lifted from the plates as above and collected by centrifugation. The cells are then suspended in dye loading buffer consisting of Ringer's solution supplemented with 0.1% Pluronic Acid and 1 micromolar Fluo4-AM dye. Cells are loaded for ˜60 minutes in the dark with occasional mixing. The cells are collected by centrifugation, the loading media aspirated, and the cells resuspended in 25 mL Ringer's solution and incubated ˜60 minutes in the dark. The cells are again collected by centrifugation, rinsed in Ringer's Solution and resuspended to 0.2×10^6 cells/mL in modified Ringer's solution containing 10 mM calcium.
(§3) Compounds are dissolved to a concentration of 10 millimolar with DMSO. Compound plates are created by dispensing compounds into 384 well black wall clear bottom plates (Greiner 781091). Positive and negative controls are included on each plate. Typically, different amounts of each compound are tested ranging from 100 nanoMoles (20 micromolar final concentration) decreasing in half-log steps to 31 picoMoles (6 nanomolar final concentration). Each concentration is typically tested in triplicate.
(§4) 50 microliters of dye-loaded cells are dispensed into each well of the compound assay plate created above. The fluorescence in each well is then determined with an excitation wavelength of 480 nm and an emission wavelength of 540 nm using either a Molecular Devices SpectraMax multimode plate reader or a Hamamatsu FDSS/uCell plate imager.
(§5) The resulting fluorescence for each well is exported as an ascii file and loaded into our LIMS for analysis. The percent activity of each compound at each concentration is determined by comparison to the positive and negative control wells included in each plate.
Assays for TRPML2 and TRPML3 were performed as above for TRPML1, by substituting the appropriate TRPML2 or TRPML3 subtype for the TRPML1.
(§6) EC50 values were calculated using a non-linear regression of Prism. In the table, “A” indicates an EC50 of less than 100 nM, “B” indicates an EC50 range from 100 nM to 500 nM; “C” indicates an EC50 range from 500 nM to 2 μM; and “D” indicates an EC50 greater than 2 μM.

human TRPML1 = human TRPML1 (Homo sapiens, UniProt Q9GZU1); test: Fluorescent TRPML1 assay (Fluo4-AM calcium fluorescence, HEK-293 Trex cells); assay type: cell-based; conditions: Table 3, compounds 101-177
Description: as §1, §2, §3, §4, §5, §6

Chain of human TRPML1 (Q9GZU1 whole entry L15A/L16A/L577A/L578A, form open): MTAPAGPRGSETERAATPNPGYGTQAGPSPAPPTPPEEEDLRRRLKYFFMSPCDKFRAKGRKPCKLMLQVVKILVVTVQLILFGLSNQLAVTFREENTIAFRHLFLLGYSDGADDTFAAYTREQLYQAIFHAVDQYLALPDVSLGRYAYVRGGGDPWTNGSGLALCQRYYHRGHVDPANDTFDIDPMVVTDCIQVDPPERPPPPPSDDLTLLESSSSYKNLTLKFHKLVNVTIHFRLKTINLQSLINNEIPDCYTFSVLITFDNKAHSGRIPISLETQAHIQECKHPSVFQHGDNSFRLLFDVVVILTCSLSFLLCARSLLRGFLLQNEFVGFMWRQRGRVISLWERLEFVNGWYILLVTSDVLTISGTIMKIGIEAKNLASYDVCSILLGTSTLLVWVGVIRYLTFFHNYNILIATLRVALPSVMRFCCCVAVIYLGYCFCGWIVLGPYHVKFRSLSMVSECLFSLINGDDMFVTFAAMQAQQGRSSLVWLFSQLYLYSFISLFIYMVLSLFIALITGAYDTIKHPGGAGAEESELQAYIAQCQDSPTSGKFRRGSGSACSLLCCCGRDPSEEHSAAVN

EC50 (TRPML3)	EC50 (human TRPML1)	Structure (SMILES)
> 2000 nM	< 100 nM	CC(C)CC(=O)N1CCN(c2ncnc3c2c(C2CC2)cn3-c2cc(C#N)ccn2)[C@@H](C)C1 [Compound 137, (S)-2-(5-cyclopropyl-4-(2-methyl-4-(3-methylbutanoyl)piperazin-1-yl)-7H-pyrrolo[2,3-d]pyrimidin-7-yl)isonicotinonitrile]
< 100 nM	100 to 500 nM	CC(C)C(=O)N1CCN(c2ncnc3c2c(-c2ccccc2F)cn3-c2cc(C#N)ccn2)[C@H](C)C1 [Compound 138, (R)-2-(5-(2-fluorophenyl)-4-(4-isobutyryl-2-methylpiperazin-1-yl)-7H-pyrrolo[2,3-d]pyrimidin-7-yl)isonicotinonitrile]
100 to 500 nM	100 to 500 nM	CC(C)C(=O)N1CCN(c2ncnc3c2c(-c2ccccc2F)cn3-c2ncc(C#N)s2)[C@@H](C)C1 [Compound 142, (S)-2-(5-(2-fluorophenyl)-4-(4-isobutyryl-2-methylpiperazin-1-yl)-7H-pyrrolo[2,3-d]pyrimidin-7-yl) thiazole-5-carbonitrile]
< 100 nM	100 to 500 nM	CC(C)C(=O)N1CCN(c2ncnc3c2c(-c2ccccc2F)cn3-c2cc(C#N)ccn2)CC12CC2 [Compound 145, 2-(5-(2-fluorophenyl)-4-(4-isobutyryl-4,7-diazaspiro[2.5]octan-7-yl)-7H-pyrrolo[2,3-d]pyrimidin-7-yl)isonicotinonitrile]
500 to 2000 nM	500 to 2000 nM	CCN(CC)c1cn(-c2cccc(Cl)c2)c2ncnc(N3CCN(C(=O)C(C)C)C[C@@H]3C)c12 [Compound 147, (S)-1-(4-(7-(3-chlorophenyl)-5-(diethylamino)-7H-pyrrolo[2,3-d]pyrimidin-4-yl)-3-methylpiperazin-1-yl)-2-methylpropan-1-one]
100 to 500 nM	500 to 2000 nM	CC(C)C(=O)N1CCN(c2ncnc3c2c(N2CCCC2)cn3-c2cc(C#N)ccn2)C[C@H]1C [Compound 148, (R)-2-(4-(4-isobutyryl-3-methylpiperazin-1-yl)-5-(pyrrolidin-1-yl)-7H-pyrrolo[2,3-d]pyrimidin-7-yl)isonicotinonitrile]
500 to 2000 nM	500 to 2000 nM	CC(C)C(=O)N1CCN(c2ncnc3c2c(C2CCC2)cn3-c2cc(C#N)ccn2)[C@@H](C)C1 [Compound 150, (S)-2-(5-cyclobutyl-4-(4-isobutyryl-2-methylpiperazin-1-yl)-7H-pyrrolo[2,3-d]pyrimidin-7-yl)isonicotinonitrile]
100 to 500 nM	100 to 500 nM	CCN(CC)c1cn(-c2cc(C#N)ccn2)c2ncnc(N3CCN(C(=O)C(C)C)C[C@@H]3C)c12 [Compound 151, (S)-2-(5-(diethylamino)-4-(4-isobutyryl-2-methylpiperazin-1-yl)-7H-pyrrolo[2,3-d]pyrimidin-7-yl)isonicotinonitrile]
< 100 nM	100 to 500 nM	CC(C)C(=O)N1CCN(c2ncnc3c2c(-c2ccccc2F)cn3-c2cc(C#N)ncn2)[C@@H](C)C1 [Compound 152, (S)-6-(5-(2-fluorophenyl)-4-(4-isobutyryl-2-methylpiperazin-1-yl)-7H-pyrrolo[2,3-d]pyrimidin-7-yl)pyrimidine-4-carbonitrile]
500 to 2000 nM	500 to 2000 nM	CC(C)C(=O)N1CCN(c2ncnc3c2c(-c2ccccc2F)cn3-c2nccc(C#N)n2)[C@@H](C)C1 [Compound 156, (S)-2-(5-(2-fluorophenyl)-4-(4-isobutyryl-2-methylpiperazin-1-yl)-7H-pyrrolo[2,3-d]pyrimidin-7-yl)pyrimidine-4-carbonitrile]
500 to 2000 nM	100 to 500 nM	CC(C)C(=O)N1CCN(c2ncnc3c2c(-c2ccccc2F)cn3-c2cc(C#N)n(C)c2)[C@@H](C)C1 [Compound 157, (S)-4-(5-(2-fluorophenyl)-4-(4-isobutyryl-2-methylpiperazin-1-yl)-7H-pyrrolo[2,3-d]pyrimidin-7-yl)-1-methyl-1H-pyrrole-2-carbonitrile]
100 to 500 nM	< 100 nM	C[C@H]1CN(C(=O)C(C)(C)O)CCN1c1ncnc2c1c(-c1ccccc1F)cn2-c1cc(C#N)ccn1 [Compound 159, (S)-2-(5-(2-fluorophenyl)-4-(4-(2-hydroxy-2-methylpropanoyl)-2-methylpiperazin-1-yl)-7H-pyrrolo[2,3-d]pyrimidin-7-yl)isonicotinonitrile]
> 2000 nM	100 to 500 nM	C[C@H]1CN(C(=O)C(C)(C)O)CCN1c1ncnc2c1c(C1CC1)cn2-c1cc(C#N)ccn1 [Compound 160, (S)-2-(5-cyclopropyl-4-(4-(2-hydroxy-2-methylpropanoyl)-2-methylpiperazin-1-yl)-7H-pyrrolo[2,3-d]pyrimidin-7-yl)isonicotinonitrile]
500 to 2000 nM	100 to 500 nM	C[C@H]1CN(C(=O)C(C)(C)O)CCN1c1ncnc2c1c(N1CCC1)cn2-c1cc(C#N)ccn1 [Compound 162, (S)-2-(5-(azetidin-1-yl)-4-(4-(2-hydroxy-2-methylpropanoyl)-2-methylpiperazin-1-yl)-7H-pyrrolo[2,3-d]pyrimidin-7-yl)isonicotinonitrile]
100 to 500 nM	< 100 nM	CCCN(CC)c1cn(-c2cc(C#N)ccn2)c2ncnc(N3CCN(C(=O)C(C)C)C[C@@H]3C)c12 [Compound 163, (S)-2-(5-(ethyl(propyl)amino)-4-(4-isobutyryl-2-methylpiperazin-1-yl)-7H-pyrrolo[2,3-d]pyrimidin-7-yl)isonicotinonitrile]
< 100 nM	< 100 nM	CCCN(CC)c1cn(-c2cc(C#N)ccn2)c2ncnc(N3CCN(C(=O)C(C)(C)C)C[C@@H]3C)c12 [Compound 164]
< 100 nM	< 100 nM	CC(C)C(=O)N1C[C@H](C)N(c2ncnc3c2c(-c2ccccc2F)cn3-c2cc(F)ccn2)C[C@H]1C [Compound 167, 1-((2R,5S)-4-(5-(2-fluorophenyl)-7-(4-fluoropyridin-2-yl)-7H-pyrrolo[2,3-d]pyrimidin-4-yl)-2,5-dimethylpiperazin-1-yl)-2-methylpropan-1-one]
< 100 nM	< 100 nM	CC(C)C(=O)N1C[C@H](C)N(c2ncnc3c2c(-c2ccccc2F)cn3-c2cc(Cl)ccn2)C[C@H]1C [Compound 168, 1-((2R,5S)-4-(7-(4-chloropyridin-2-yl)-5-(2-fluorophenyl)-7H-pyrrolo[2,3-d]pyrimidin-4-yl)-2,5-dimethylpiperazin-1-yl)-2-methylpropan-1-one]
100 to 500 nM	< 100 nM	C[C@@H]1CN(c2ncnc3c2c(-c2ccccc2F)cn3-c2cc(F)ccn2)[C@@H](C)CN1C(=O)C(C)(C)O [Compound 169, 1-((2R,5S)-4-(5-(2-fluorophenyl)-7-(4-fluoropyridin-2-yl)-7H-pyrrolo[2,3-d]pyrimidin-4-yl)-2,5-dimethylpiperazin-1-yl)-2-hydroxy-2-methylpropan-1-one]
100 to 500 nM	100 to 500 nM	CC(C)C(=O)N1CCN(c2ncnc3c2c(-c2ccccc2F)cn3-c2cc(C#N)cnn2)[C@@H](C)C1 [Compound 171, (S)-6-(5-(2-fluorophenyl)-4-(4-isobutyryl-2-methylpiperazin-1-yl)-7H-pyrrolo[2,3-d]pyrimidin-7-yl)pyridazine-4-carbonitrile]
> 2000 nM	500 to 2000 nM	Cc1nccnc1-c1cn(-c2cc(C#N)ccn2)c2ncnc(N3C[C@@H](C)N(C(=O)C(C)C)C[C@@H]3C)c12 [Compound 172, 2-(4-((2S,5R)-4-isobutyryl-2,5-dimethylpiperazin-1-yl)-5-(3-methylpyrazin-2-yl)-7H-pyrrolo[2,3-d]pyrimidin-7-yl)isonicotinonitrile]
